Data set [1] is described as follows: Multiple p.o. dosing plasma concentration-time profile and simulation. The format is in vivo, mice. As to conditions: 68 mg/kg three times a day for 3 days.
The next data set concerns rodent malaria parasites. On the set-up: method as in PMID 21501696. As to conditions: 68 mg/kg three times a day for 3 days, cited from earlier work.
A short description of data set [2]: Effects of food and parasite infection on absorption of N-251 after p.o. administration. As to conditions: p.o. 68 mg/kg; for F: vs AUC of 10 mg/kg i.v. The format is in vivo, mice. Here is the method:
Normal-fasted and normal-fed mice were used for the analysis. Parasite-infected mice were prepared before the analysis, and a 0.61% infection rate in P. berghei-infected mice under fasting condition was used. The single p.o. dose of N-251 was 68 mg/kg. Blood sample was collected 15, 30, and 45 min as well as 1, 1.5, 2, 3, 4, and 6 h post-dose. Data were expressed as mean with the bar indicating the SD value.

[3] abbreviates: ICR, mouse, plasma, po, 68 mg/kg, normal-fed mice.

Values joined by “and” are separate entries in the source; they are usually repeats but may differ in a detail not shown here. Equal entries are not always repeated. Where two headings read alike, the source gives them in different places.

Regarding `OCCCCCCC1COOC2(CCCCCCCCCCC2)OOC1` [N-251, 6-(1,2,6,7-tetraoxaspiro [7.11]nonadec-4-yl)hexan-1-ol], the “plasma concentration maintained for 72 h” value in data set [1] is on record as “more than 10 ng/mL”. Moreover, the “period without parasites after the last administration” value with rodent malaria parasites (infected mice) is on record as 2 months. Moreover, the “time after treatment at which parasites were not observed in the bloodstream” value with rodent malaria parasites (infected mice) is 36 h. For the same compound, the “time after which malaria parasites decreased” value with rodent malaria parasites (infected mice) was 16 h. The “cure of infected mice” value with rodent malaria parasites is reported as “completely cured without recrudescence”. In addition, the AUC in data set [2] (ICR, mouse, plasma, po, 68 mg/kg, P. berghei-infected (0.61%) fasted mice) is 3270 ng·h/mL; in data set [2] (setting [3]), 2280 ng·h/mL. The Cmax in data set [2] (ICR, mouse, plasma, po, 68 mg/kg, P. berghei-infected (0.61%) fasted mice, read-out: Cmax) was 1770 ± 1650 ng/mL; in data set [2] (ICR, mouse, plasma, po, 68 mg/kg, normal-fasted mice (control), read-out: Cmax) it was 1680 ng/mL; in data set [2] (ICR, mouse, plasma, po, 68 mg/kg, normal-fed mice, read-out: Cmax), 953 ng/mL; in data set [2] (normal-fed mice, 68 mg/kg), 950 ng/mL and 952.50 ± 332.49 ng/mL. In addition, the Tmax in data set [2] (setting [3]) turned out to be 1.5 h. Also, the “AUC in fed mice relative to fasted mice” value in data set [2] was “about 60%”. Besides, the “Cmax in fed mice relative to normal-fasted mice” value in data set [2] worked out at 57%. Further, the values for the F in data set [2] (P. berghei-infected (0.61%) fasted mice) and in data set [2] (normal-fed mice) were 0.1978 and 0.1379, respectively. This compound had an MRTpo in data set [2] (normal-fed mice) of 3.01 h.

These data come from paper PMC6611044, “Pharmacokinetic analysis of new synthetic antimalarial N-251” (Tropical Medicine and Health, 2019).
